# Key:
# [1] = test system: K. pneumoniae SI-117 producing VIM-1; experiment: Broth microdilution MIC in CAMHB; assay type: cell-based; settings: Klebsiella pneumoniae, read-out: Minimum Inhibitory Concentration, K. pneumoniae SI-117
# Experimental: (§1) Example III: In Vitro Antibacterial Assays
# (§2) To determine the ability of test compounds to inhibit the growth of bacterial strains, classic cell based broth microdilution minimum inhibitory concentration (MIC) assays were employed. MIC assays are performed according to CLSI methods except where otherwise noted (CLSI, 2018 and CLSI, 2019). The reference type strain E. coli ATCC 25922; the wild-type parent strain E. coli AG100; the hyper-permeable E. coli 901C and E. coli D22; and the E. coli AG100A strain lacking the acrAB efflux pump encoding genes were used to determine the ability of the PBP inhibitors to penetrate the outer membrane of gram-negative bacteria and inhibit bacterial growth. […] The P. aeruginosa ATCC 27853 and A. baumannii ATCC 19606, along with the hyper-permeable P. aeruginosa ATCC 35151 and an engineered efflux pump-compromised strain of P. aeruginosa (ΔmexAB-oprM) were used to determine the ability of PBP inhibitors to penetrate the outer membrane of P. aeruginosa and A. baumannii and assess antibacterial activity against these important gram-negative organisms.
# (§3) Briefly, cryo-preserved bacterial cultures of challenge strains are streaked for isolation on appropriate agar medium, in this case cation-adjusted Mueller Hinton agar. Following incubation to allow growth of the colonies, plates are sealed with parafilm and stored refrigerated for up to two weeks. For preparation of assay inoculum and to ensure low variability, at least 5 colonies are picked from the agar plates with an inoculating loop and aseptically transferred to a culture tube containing 3 mL of cation-adjusted Mueller Hinton broth (CAMHB). The broth culture is grown for 3-5 hours at 37° C. with shaking at 200 rpm. Meanwhile, 2-fold serial dilutions of test compounds are conducted in a 96-well plate with a final volume of 75 μL per well at 2-fold the final desired concentration. After the dilution plates are set up the growing cultures are then diluted in a cuvette containing CAMHB and the optical density is measured at 600 nm. The inoculum is diluted such that 75 μL of this culture in CAMHB results in a starting bacterial concentration of 2-8×10^5 CFU/mL when added to the dilution plates. The plates are incubated for 16-20 hours for Enterobacteriaceae and Pseudomonas and 20-24 hours for Acinetobacter at 37° C. The MIC values are read visually as the lowest concentration well with no bacterial growth.
# E. coli 901C = experiment: Broth microdilution MIC in CAMHB; assay type: cell-based; settings: Escherichia coli; MHB; hyper-permeable E. coli 901C; read-out: Minimum Inhibitory Concentration, E. coli 901C
# Experimental: as §1, §2, §3
# E. coli AG100A = experiment: Broth microdilution MIC in CAMHB; assay type: cell-based; settings: Escherichia coli, read-out: Minimum Inhibitory Concentration, E. coli AG100A
# Experimental: as §1, §2, §3
# P. aeruginosa ATCC 27853 = experiment: Broth microdilution MIC in CAMHB; assay type: cell-based; settings: Pseudomonas aeruginosa, ATCC27853; MHB; read-out: Minimum Inhibitory Concentration, P. aeruginosa ATCC 27853
# Experimental: as §1, §2, §3
# E. coli ATCC 25922 = experiment: Broth microdilution MIC in CAMHB; assay type: cell-based; settings: Escherichia coli, ATCC25922; MHB; E. coli ATCC 25922; read-out: Minimum Inhibitory Concentration, E. coli 25922
# Experimental: as §1, §2, §3
# P. aeruginosa ATCC 35151 = experiment: Broth microdilution MIC in CAMHB; assay type: cell-based; settings: Pseudomonas aeruginosa, ATCC35151; MHB; hyper-permeable strain; read-out: Minimum Inhibitory Concentration, P. aeruginosa ATCC 35151
# Experimental: as §1, §2, §3
# [2] = test system: P. aeruginosa (ΔmexAB-oprM); experiment: Broth microdilution MIC in CAMHB; assay type: cell-based; settings: Pseudomonas aeruginosa, read-out: Minimum Inhibitory Concentration, P. aeruginosa ΔmexAB-OprM
# Experimental: as §1, §2, §3
# [3] = test system: K. pneumoniae 848844 producing SHV-11 and KPC-2; experiment: Broth microdilution MIC in CAMHB; assay type: cell-based; settings: Klebsiella pneumoniae, read-out: Minimum Inhibitory Concentration, K. pneumoniae 848844
# Experimental: as §1, §2, §3
# E. coli AG100 = experiment: Broth microdilution MIC in CAMHB; assay type: cell-based; settings: Escherichia coli; MHB; wild-type parent strain E. coli AG100; read-out: Minimum Inhibitory Concentration, E. coli AG100
# Experimental: as §1, §2, §3
# [4] = test system: K. pneumoniae UMM producing SHV-5 and KPC-2; experiment: Broth microdilution MIC in CAMHB; assay type: cell-based; settings: Klebsiella pneumoniae, read-out: Minimum Inhibitory Concentration, K. pneumoniae UMM
# Experimental: as §1, §2, §3
# E. coli D22 = experiment: Broth microdilution MIC in CAMHB; assay type: cell-based; settings: Escherichia coli; MHB; hyper-permeable E. coli D22; read-out: Minimum Inhibitory Concentration, E. coli D22
# Experimental: as §1, §2, §3
# A. baumannii ATCC 19606 = experiment: Broth microdilution MIC in CAMHB; assay type: cell-based; settings: Acinetobacter baumannii, ATCC19606; MHB; read-out: Minimum Inhibitory Concentration, A. baumannii ATCC 19606
# Experimental: as §1, §2, §3
# P. aeruginosa PBP3 = molecular target: T1, P. aeruginosa PBP3 (Pseudomonas aeruginosa, UniProt G3XD46); experiment: Bocillin-FL fluorescence polarization competition binding assay, P. aeruginosa PBP3; settings: fluorescence polarization competition binding assay using Bocillin-FL
# T1 construct: made in house
# T1 sequence (G3XD46 whole entry): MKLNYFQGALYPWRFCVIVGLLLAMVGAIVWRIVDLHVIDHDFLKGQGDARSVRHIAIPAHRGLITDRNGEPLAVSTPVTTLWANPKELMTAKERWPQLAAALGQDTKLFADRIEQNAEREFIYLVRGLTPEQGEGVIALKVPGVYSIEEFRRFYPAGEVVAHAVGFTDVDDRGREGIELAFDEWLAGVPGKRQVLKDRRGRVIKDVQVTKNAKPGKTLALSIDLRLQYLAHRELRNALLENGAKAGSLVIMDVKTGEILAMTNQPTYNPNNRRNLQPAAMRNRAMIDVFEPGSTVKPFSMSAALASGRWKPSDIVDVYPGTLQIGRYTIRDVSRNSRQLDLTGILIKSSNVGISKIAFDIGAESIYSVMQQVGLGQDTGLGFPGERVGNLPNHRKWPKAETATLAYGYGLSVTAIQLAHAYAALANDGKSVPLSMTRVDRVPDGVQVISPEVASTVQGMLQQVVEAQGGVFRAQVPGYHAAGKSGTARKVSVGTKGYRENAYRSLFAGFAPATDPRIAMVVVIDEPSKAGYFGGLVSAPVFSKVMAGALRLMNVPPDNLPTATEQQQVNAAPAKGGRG
# From the text: (§4) Example I: Experimental Method for Penicillin-Binding Protein Binding Assays with Bocillin-FL Via Fluorescence Polarization
# (§5) To determine the ability of boronic acid-based test PBP inhibitors to bind Penicillin Binding Proteins (PBPs), Bocillin-FL (fluorescently-labeled penicillin V; ThermoFisher Scientific) was used in a fluorescence polarization (FP) competition binding assay to assess inhibitor binding to PBP2, PBP3 or PBP4 from Escherichia coli (K12), PBP3 from Pseudomonas aeruginosa (PA01), PBP1a, PBP2 and PBP3 from Acinetobacter baumannii (ATCC 19606), and PBP2 from Neiserria gonorrheae (FA19). PBPs were cloned and purified as described previously (E. coli PBPs, King, D. T, et al., ACS Infectious Diseases 2015, 1, 175-184; P. aeruginosa PBP3, Han et. al., PNAS 2010, 107 (51), 22002-22007; A. baumannii PBPs, Penwell et. al., Antimicrob. Agents Chemother. 2015, 59 (3), 1680-1689; N. gonorrhoeae PBP2, Singh et. al., J Biol. Chem. 2019, 294 (38), 14020-14032). To establish assay conditions for competition binding, enzyme titration/saturation binding experiments were initially performed. Bocillin-FL was prepared at 0.2 μM in a buffer comprised of 50 mM Hepes (pH 8.0), 300 mM NaCl and 5% (v/v) glycerol for reactions with E. coli, P. aeruginosa and N. gonorrhoeae PBPs, and 25 mM Tris (pH 8.0), 200 mM NaCl and 10% (v/v) glycerol and 0.005% (v/v) Tween 20 for reactions with A. baumannii PBPs. Saturation binding was performed by mixing 40 μl of PBP solutions ranging in concentrations from 0-24 μM with 40 μl of the 0.2 μM Bocillin-FL solution, in individual wells of a black 384-well microplate. FP was measured immediately upon mixing (Excitation, 490 nm; Emission, 520 nm; g-factor, 0.96), using a Cytation3 (BioTek) microplate reader and measured continuously for up to 120 minutes. […] The competition binding assay (80 μl final volume) was validated using beta-lactams and PBPs at final concentrations of: 1.5 μM, E. coli PBP3; 0.75 μM, P. aeruginosa PBP3; 1 μM A. baumannii PBP1a; 2.5 μM A. baumannii PBP2; 0.2 μM A. baumannii PBP3; and […] N. gonorrhoeae PBP2. Bocillin-FL was at 0.1 μM (0.05 μM with A. baumannii PBP1a) and beta-lactam concentrations ranged from 0-1000 μM. […] Bocillin-FL was added and the FP immediately measured for up to 60 minutes (90 minutes for E. coli PBP2). […] The beta-lactam potency was reported as the concentration of beta-lactam required to reduce the amount of PBP bound-Bocillin-FL by 50% (EC50). […] Binding assays for boronic acid PBP inhibitors were performed in an identical fashion for the respective PBPs
# E. coli K12 PBP3 = molecular target: T2, E. coli K12 PBP3 (Escherichia coli, UniProt P0AD68); experiment: biochemical; assay type: binding
# T2 construct: made in house
# T2 sequence (P0AD68 1-577): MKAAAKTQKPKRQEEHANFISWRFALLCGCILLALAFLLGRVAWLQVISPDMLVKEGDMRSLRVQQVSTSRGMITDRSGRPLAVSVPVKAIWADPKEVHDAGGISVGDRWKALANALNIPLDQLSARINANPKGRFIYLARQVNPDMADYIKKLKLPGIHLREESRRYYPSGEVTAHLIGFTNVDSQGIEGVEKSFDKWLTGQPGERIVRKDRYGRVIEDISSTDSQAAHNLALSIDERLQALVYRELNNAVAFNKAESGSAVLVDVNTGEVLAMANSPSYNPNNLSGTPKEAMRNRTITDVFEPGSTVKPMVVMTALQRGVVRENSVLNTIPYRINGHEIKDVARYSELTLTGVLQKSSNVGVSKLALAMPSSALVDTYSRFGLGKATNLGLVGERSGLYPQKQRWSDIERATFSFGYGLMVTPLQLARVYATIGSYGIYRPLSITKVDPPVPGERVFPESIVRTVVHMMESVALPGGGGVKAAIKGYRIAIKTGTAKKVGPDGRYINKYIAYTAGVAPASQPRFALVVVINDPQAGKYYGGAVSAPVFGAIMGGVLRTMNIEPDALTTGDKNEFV
# From the text: as §4, §5
SMILES,MIC [1],MIC (E. coli 901C),MIC (E. coli AG100A),MIC (P. aeruginosa ATCC 27853),MIC (E. coli ATCC 25922),MIC (P. aeruginosa ATCC 35151),MIC [2],MIC [3],MIC (E. coli AG100),MIC [4],MIC (E. coli D22),MIC (A. baumannii ATCC 19606),P. aeruginosa PBP3 Potency (P. aeruginosa PBP3),EC50 (E. coli K12 PBP3)
"NCCN1CCN(C(=O)N[C@@H](C(=O)N[C@H]2Cc3cccc(C(=O)O)c3OB2O)c2c(Cl)cccc2Cl)C(=O)C1=O (single isomer, unassigned) [Example 224]",> 128 µg/mL,> 128 µg/mL,> 128 µg/mL,> 128 µg/mL,> 128 µg/mL,32 to 64 µg/mL,> 128 µg/mL,> 128 µg/mL,> 128 µg/mL,8 to 16 µg/mL,> 128 µg/mL,> 128 µg/mL,B (B represents a potency between 30 μM and 500 μM inclusive),
"NCCCN1CCN(C(=O)N[C@@H](C(=O)N[C@H]2Cc3cccc(C(=O)O)c3OB2O)c2ccc(O)c(F)c2F)C(=O)C1=O (single isomer, unassigned) [Example 238]",0.5 to 1 µg/mL,32 to 64 µg/mL,32 to 64 µg/mL,32 to 64 µg/mL,2 to 4 µg/mL,< 0.25 µg/mL,2 to 4 µg/mL,8 to 16 µg/mL,32 to 64 µg/mL,< 0.25 µg/mL,8 to 16 µg/mL,> 128 µg/mL,D (D represents a potency <10 μM),
"NCCCN1CCN(C(=O)N[C@H](C(=O)N[C@H]2Cc3cccc(C(=O)O)c3OB2O)c2ccc(O)c(F)c2F)C(=O)C1=O (single isomer, unassigned) [Example 239]",8 to 16 µg/mL,> 128 µg/mL,> 128 µg/mL,> 128 µg/mL,> 128 µg/mL,2 to 4 µg/mL,8 to 16 µg/mL,> 128 µg/mL,> 128 µg/mL,2 to 4 µg/mL,> 128 µg/mL,> 128 µg/mL,C (C represents a potency between 10 and 30 μM),
"O=C(O)c1cccc2c1OB(O)[C@@H](NC(=O)C(NC(=O)N1CCN(CCF)C(=O)C1=O)c1ccc(O)c(F)c1F)C2 (stereo partly drawn) [Example 235, (3R)-3-(2-(2,3-difluoro-4-hydroxyphenyl)-2-(4-(2-fluoroethyl)-2,3-dioxopiperazine-1-carboxamido)acetamido)-2-hydroxy-3,4-dihydro-2H-benzo[e][1,2]oxaborinine-8-carboxylic acid]",2 to 4 µg/mL,32 to 64 µg/mL,32 to 64 µg/mL,> 128 µg/mL,8 to 16 µg/mL,0.5 to 1 µg/mL,8 to 16 µg/mL,32 to 64 µg/mL,32 to 64 µg/mL,< 0.25 µg/mL,32 to 64 µg/mL,> 128 µg/mL,,< 30 µM

# — patent publication US20230114728A1 (Venatorx Pharmaceuticals, Inc., priority 2019, published 2023)
